From US4808587A, “5-substituted pyrido[2,3-d]pyrimidine-2,4-diones” (Nippon Zoki Pharmaceutical Co., Ltd., priority 1986, dated 1989) come the findings set out here.

A value given as a limit tells only on which side of the number the result lay.

Data set [1] can be described thus: Acute toxicity test (oral, LD50). Particulars: mouse, in vivo. As for the experimental part:
The test compounds were orally administered to groups of 5 ICR-strain male mice. LD50 value of the compound of the present invention was calculated by the LitchfieldWilcoxon's method based on mortality for 14 days after drug administration.

The subject of data set [2] is PCA (Passive Cutaneous Anaphylaxis) reaction. The data set is described as follows: Anti-allergic effect: PCA (Passive Cutaneous Anaphylaxis) reaction in rats. The data set is classed as in vivo, Wister-strain male rats. As to conditions: Rattus norvegicus, oral, 1 hour before antigen challenge, dye leakage at 620 nm. The procedure: PCA (Passive Cutaneous Anaphylaxis) reaction in rats was taken as an index to an anti-allergic effect of the compound of the present invention.
In order to perform sensitization, anti-DNP-Asc (dinitrophenylated Ascaris extracts) serum diluted with saline was injected intradermally at 4 sites on the shaved back of groups of 6 Wister-strain male rats (6 weeks of age). 1 hour after oral administration of the test drug, the mixture of equivalent amount of DNP-Asc (5 mg/ml) and 2% Evans blue were intravenously injected to generate PCA reaction. 30 minutes thereafter, rats were killed by decapitation and exsanguinated. The skin was opened in order to evaluate the leakage of blue dye. The obtained skin was dissolved in 2N potassium hydroxide, then 2N phosphoric acid and acetone were added thereto. The amount of dye was determined by measurement of absorbance at 620 nm after centrifugation.

As a reminder, the LD50 is the dose at which mortality reaches 50%. Low readings indicate greater toxicity, high ones lower toxicity. A word on the inhibition in vivo: it is the drop in the measured response relative to a control, in per cent. Low values mean little suppression, high ones strong suppression. Compound `Cn1c(=O)c2c(NO)ccnc2n(C)c1=O` [Compound 11, 5-hydroxyamino-1,3-dimethylpyrido[2,3-d]pyrimidine-2,4-dione] came in with an LD50 at 336 h in data set [1] above 1000 mg/kg. Besides, in data set [2], at 20 mg/kg the inhibition in vivo was 74%.

In data set [2], `Cn1c(=O)c2cc(N)cnc2n(C)c1=O` [Compound 17, 6-amino-1,3-dimethylpyrido[2,3-d]pyrimidine-2,4-dione] had an inhibition in vivo at 20 mg/kg of 56.2%.

In data set [1], `CC(C)Nc1ccnc2c1c(=O)n(C)c(=O)n2C` [Compound 10, 5-isopropylamino-1,3-dimethylpyrido[2,3-d]pyrimidine-2,4-dione] registered an LD50 at 336 h of 850 mg/kg. At 20 mg/kg the inhibition in vivo in data set [2] was 86.6%.

`CCn1c(=O)c2c(NC)ccnc2n(CC)c1=O` [Compound 8, 5-methylamino-1,3-diethylpyrido[2,3-d]pyrimidine-2,4-dione] came in with an inhibition in vivo at 20 mg/kg in data set [2] of 76.4%.

The compound `Cn1c(=O)c2c(N)ccnc2n(C)c1=O` [Compound 4, 5-amino-1,3-dimethylpyrido[2,3-d]pyrimidine-2,4-dione] registered a 50% lethal dose (LD50) at 336 h in data set [1] of 850 mg/kg. In data set [2], this compound came in with an inhibition in vivo at 20 mg/kg of 68.7%.

`Cn1c(=O)c2c(O)ccnc2n(C)c1=O` [Compound 14, 5-hydroxy1,3-dimethylpyrido[2,3-d]pyrimidine-2,4-dione] registered an inhibition in vivo at 20 mg/kg in data set [2] of 49.9%.

For `Cn1c(=O)c2ccc(N)nc2n(C)c1=O` [Compound 15, 7-amino-1,3-dimethylpyrido[2,3-d]pyrimidine-2,4-dione], the LD50 at 336 h in data set [1] is above 1200 mg/kg. Further, at 20 mg/kg the inhibition in vivo in data set [2] was 68.7%.

With `CCn1c(=O)c2c(N)ccnc2n(CC)c1=O` [Compound 5, 5-amino-1,3-diethylpyrido[2,3-d]pyrimidine-2,4-dione], the LD50 at 336 h in data set [1] is above 1000 mg/kg. The same compound returned an inhibition in vivo at 20 mg/kg in data set [2] of 79.2%.

With `Cn1c(=O)c2[nH]cnc2n(C)c1=O` [Theophylline, reference compound], in data set [2], testing at 20 mg/kg gave an inhibition in vivo of 57.9%.

On to `C=CCNc1ccnc2c1c(=O)n(C)c(=O)n2C` [Compound 9, 5-allylamino-1,3-dimethylpyrido[2,3-d]pyrimidine-2,4-dione], for which the LD50 at 336 h in data set [1] was above 1000 mg/kg. This compound also gave an inhibition in vivo at 20 mg/kg in data set [2] of 67.9%.

On to `CNc1ccnc2c1c(=O)n(C)c(=O)n2C` [Compound 7, 5-methylamino-1,3-dimethylpyrido[2,3-d]pyrimidine-2,4-dione], for which the LD50 at 336 h in data set [1] was 1050 mg/kg. Besides, in data set [2], at 20 mg/kg the inhibition in vivo was 73.7%.

In the case of `Cn1c(=O)c2cccnc2n(C)c1=O` [Compound 2, 1,3-dimethylpyrido[2,3-d]pyrimidine-2,4-dione], testing at 20 mg/kg in data set [2] gave an inhibition in vivo of 51.2%.
